Like-named read-outs stand apart in the source and are kept apart here.
What was measured:
[1] = molecular target: soluble human BACE1 catalytic domain (Homo sapiens (Human), UniProt P56817); test: BACE1 HTRF FRET Assay; format: biochemical; settings: Ki calculated from IC50 using the Cheng-Prusoff equation; QSY7-APPswe-Eu substrate, pH 5.0
Protocol: A homogeneous time-resolved FRET assay can be used to determine IC50 values for inhibitors of the soluble human BACE1 catalytic domain. […] This substrate contains an N-terminal QSY7 moiety that serves as a quencher of the C-terminal Europium fluorophore (620 nm Em). […] Inhibition of BACE cleavage of the QSY7-APP^swe-Eu substrate by inhibitors is manifested as a suppression of 620 nm fluorescence. […] The reactions are incubated at 30° C. for 1.5 hours. The 620 nm fluorescence is then read on a Rubystar HTRF plate reader (BMG Labtechnologies) using a 50 millisecond delay followed by a 400 millisecond acquisition time window. Inhibitor IC50 values are derived from non-linear regression analysis of concentration response curves.

[2] = molecular target: purified human autoBACE-2 (Homo sapiens (Human), UniProt Q9Y5Z0); test: BACE-2 Assay (BACE-HTRF assay); format: biochemical; settings: Ki calculated from IC50 using the Cheng-Prusoff equation, pH 5.0, read-out: BACE2 Ki
Protocol: Inhibitor IC50's at purified human autoBACE-2 are determined in a time-resolved endpoint proteolysis assay that measures hydrolysis of the QSY7-[…]-Eu-amide FRET peptide substrate (BACE-HTRF assay). […] Inhibitor compounds, prepared at 3× the desired final concentration in 1×BACE assay buffer (20 mM sodium acetate pH 5.0, 10% glycerol, 0.1% Brij-35) supplemented with 7.5% DMSO are pre-incubated with an equal volume of autoBACE-2 enzyme diluted in 1×BACE assay buffer (final enzyme concentration 1 nM) in black 384-well NUNC plates for 30 minutes at 30° C. […] DMSO is present at 5% final concentration in the assay. Following laser excitation of sample wells at 320 nm, the fluorescence signal at 620 nm is collected for 400 ms following a 50 μs delay on a RUBYstar HTRF plate reader (BMG Labtechnologies). Raw RFU data is normalized to maximum (1.0 nM BACE/DMSO) and minimum (no enzyme/DMSO) RFU values. […] The Ki values are calculated from the IC50 using the Cheng-Prusoff equation.

[3] = QSY7-EISEVNLDAEFC-Eu-amide substrate

soluble human BACE1 catalytic domain, sequence (P56817 75-416): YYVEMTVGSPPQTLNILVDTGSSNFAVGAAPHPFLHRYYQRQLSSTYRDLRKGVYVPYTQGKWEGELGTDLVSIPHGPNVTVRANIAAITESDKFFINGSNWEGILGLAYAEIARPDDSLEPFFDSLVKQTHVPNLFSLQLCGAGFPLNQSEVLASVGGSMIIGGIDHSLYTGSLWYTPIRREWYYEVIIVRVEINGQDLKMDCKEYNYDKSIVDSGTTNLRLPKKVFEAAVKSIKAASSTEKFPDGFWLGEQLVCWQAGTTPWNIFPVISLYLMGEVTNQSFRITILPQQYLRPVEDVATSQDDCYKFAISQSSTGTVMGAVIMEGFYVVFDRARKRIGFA
purified human autoBACE-2, sequence (Q9Y5Z0 63-473 limits assumed): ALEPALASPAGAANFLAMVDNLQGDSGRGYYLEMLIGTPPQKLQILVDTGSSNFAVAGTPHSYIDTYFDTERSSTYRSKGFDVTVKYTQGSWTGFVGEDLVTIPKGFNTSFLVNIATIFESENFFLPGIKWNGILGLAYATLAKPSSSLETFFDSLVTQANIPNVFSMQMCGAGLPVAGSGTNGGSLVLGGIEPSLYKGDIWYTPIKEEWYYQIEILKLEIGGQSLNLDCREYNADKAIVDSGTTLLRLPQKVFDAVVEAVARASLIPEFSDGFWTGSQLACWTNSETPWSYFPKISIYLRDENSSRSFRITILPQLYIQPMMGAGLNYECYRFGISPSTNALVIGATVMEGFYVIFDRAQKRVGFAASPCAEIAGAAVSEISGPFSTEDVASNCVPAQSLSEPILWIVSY

SMILES	Ki [1] [nM]	Ki [2, 3] [nM]	Ki ([2]; QSY7-[…]-Eu-amide substrate) [nM]
COc1ccc(C(=O)Nc2ccc(F)c([C@@]3(C)NC(=N)N(C)S(=O)(=O)[C@@]34CCN(Cc3ccccn3)C4)c2)nc1 [Example 10]	2	–	–
CN1C(=N)N[C@](C)(c2cc(NC(=O)c3ccc(F)cn3)ccc2F)[C@]2(CCN(Cc3ccncc3)C2)S1(=O)=O [Example 29]	8	9	–
CN1C(=N)N[C@](C)(c2cc(NC(=O)c3ccc(F)cn3)ccc2F)[C@]2(CCN(Cc3cnco3)C2)S1(=O)=O [Example 30]	4	5	–
CN1C(=N)N[C@](C)(c2cc(NC(=O)c3ccc(F)cn3)ccc2F)[C@]2(CCN(Cc3cscn3)C2)S1(=O)=O [Example 33]	3	5	–
CN1C(=N)N[C@](C)(c2cc(NC(=O)c3ccc(F)cn3)ccc2F)[C@]2(CCN(Cc3cccnc3)C2)S1(=O)=O [Example 35]	2	6	–
CN1C(=N)N[C@](C)(c2cc(NC(=O)c3ccc(F)cn3)ccc2F)[C@]2(CCN(Cc3cocn3)C2)S1(=O)=O [Example 37]	2	5	–
CN1C(=N)N[C@](C)(c2cc(NC(=O)c3ccc(F)cn3)ccc2F)[C@]2(CCN(Cc3cncnc3)C2)S1(=O)=O [Example 38]	4	7	–
CCCCN1CC[C@@]2(C1)[C@@](C)(c1cc(NC(=O)c3ccc(F)cn3)ccc1F)NC(=N)N(C)S2(=O)=O [Example 39]	2	3	–
CN1C(=N)N[C@](C)(c2cc(NC(=O)c3ccc(F)cn3)ccc2F)[C@]2(CCN(Cc3cnn(C)c3)C2)S1(=O)=O [Example 40]	4	10	–
CN1C(=N)N[C@](C)(c2cc(NC(=O)c3ccc(F)cn3)ccc2F)[C@]2(CCN(S(=O)(=O)CC3CCCO3)C2)S1(=O)=O (stereo partly shown) [Example 82]	4	10	–
CN1C(=N)N[C@](C)(c2cc(NC(=O)c3ccc(F)cn3)ccc2F)[C@@]2(CCN(S(=O)(=O)c3ccccc3)C2)S1(=O)=O [Example 91]	16	6	–
COCC(=O)Nc1ccc(F)c([C@@]2(C)NC(=N)N(C)S(=O)(=O)[C@@]23CCN(Cc2ccccc2)C3)c1 [Example 96]	22	–	25

Results, then the compound that gave them:

Ki [1] [nM]	Ki [2, 3] [nM]	Ki ([2]; QSY7-[…]-Eu-amide substrate) [nM]	SMILES
3	–	–	COc1ccc(C(=O)Nc2ccc(F)c([C@@]3(C)NC(=N)N(C)S(=O)(=O)[C@@]34CCN(Cc3cscn3)C4)c2)nc1 [Example 8]
1	2	–	COc1ccc(C(=O)Nc2ccc(F)c([C@@]3(C)NC(=N)N(C)S(=O)(=O)[C@@]34CCN(CC3CCOC3)C4)c2)nc1 (stereo partly shown) [Example 9]
2	12	–	COc1ccc(C(=O)Nc2ccc(F)c([C@@]3(C)NC(=N)N(C)S(=O)(=O)[C@@]34CCN(Cc3cccnc3)C4)c2)nc1 [Example 11]
2	7	–	COc1ccc(C(=O)Nc2ccc(F)c([C@@]3(C)NC(=N)N(C)S(=O)(=O)[C@@]34CCN(CC3CC3)C4)c2)nc1 [Example 12]
3	9	–	COc1ccc(C(=O)Nc2ccc(F)c([C@@]3(C)NC(=N)N(C)S(=O)(=O)[C@@]34CCN(Cc3cnco3)C4)c2)nc1 [Example 14]
4	17	–	COc1ccc(C(=O)Nc2ccc(F)c([C@@]3(C)NC(=N)N(C)S(=O)(=O)[C@@]34CCN(Cc3cncnc3)C4)c2)nc1 [Example 15]
4	–	–	COc1ccc(C(=O)Nc2ccc(F)c([C@@]3(C)NC(=N)N(C)S(=O)(=O)[C@@]34CCN(Cc3cnn(C)c3)C4)c2)nc1 [Example 16]
4	–	–	COc1ccc(C(=O)Nc2ccc(F)c([C@@]3(C)NC(=N)N(C)S(=O)(=O)[C@@]34CCN(CC3CC(OC)C3)C4)c2)nc1 (stereo partly shown) [Example 17]
2	5	–	CN1C(=N)N[C@](C)(c2cc(NC(=O)c3ccc(F)cn3)ccc2F)[C@]2(CCN(CC3CC3)C2)S1(=O)=O [Example 31]
6	10	–	COC1CC(CN2CC[C@@]3(C2)[C@@](C)(c2cc(NC(=O)c4ccc(F)cn4)ccc2F)NC(=N)N(C)S3(=O)=O)C1 (stereo partly shown) [Example 34]

Source: US9489013B2, “C6-azaspiro iminothiadiazine dioxides as bace inhibitors, compositions, and their use” (Merck Sharp & Dohme Corp., priority 2012, dated 2016)
